Entries after “also recorded” stand apart in the source; their conditions may differ.
Columns and labels:
MCF10AT1K (M2) cells = experiment: 3D BME culture of M2 organoids, light microscopy; assay type: cell-based, Human
Method: Cells were harvested from their growth plates using 0.25% trypsin EDTA. Collected cells were cultured in Cultrex® growth factor reduced Basement Membrane Extract (BME: Trevigen, Inc) as follows: An 8 chamber glass slide system (Lab-TEK® II, Naperville, IL) was coated with 60 μl BME [Barkan D. et al., Cancer Research (2008)](protein concentration between […]; thickness-1-2 mm). 5×10^3 cells per well were re-suspended in DMEM/F12 supplemented with 2.5% DHS and 2% BME and cultured on the coated slides. Slides were incubated at 37° C., 5% CO2 incubator. Cells were re-fed every 4 days. Cell morphology was monitored by light microscopy. Immunofluorescence images were captured by Nikon Al—R confocal laser scanning microscope (Haifa University, Haifa, Israel).

BCL-2 = BCL-2 (Homo sapiens, UniProt P10415); experiment: MST binding assay; details: binding curve, dose response
Chain of BCL-2 (P10415 whole entry): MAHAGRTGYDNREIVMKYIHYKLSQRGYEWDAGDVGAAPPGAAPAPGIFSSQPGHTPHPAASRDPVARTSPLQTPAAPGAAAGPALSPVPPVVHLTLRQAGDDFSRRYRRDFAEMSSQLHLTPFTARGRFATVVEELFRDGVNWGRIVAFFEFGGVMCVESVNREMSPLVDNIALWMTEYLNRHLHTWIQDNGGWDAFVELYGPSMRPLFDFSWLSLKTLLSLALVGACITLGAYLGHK
Method: Microscale thermophoresis (MST) binding assays were performed by CreLux, a WuXi AppTech company in Germany, using recombinant ARTS, XIAP, Bcl-2 and cIAP1 proteins. Specifically, for performing experiments with untagged XIAP, a fluorescent label (NT650) was covalently attached to the protein (Maleimide coupling). The labelling was performed in a buffer containing 50 mM HEPES pH 7.0, 150 mM NaCl and 0.005% Tween-20.

binding of XIAP to Bcl-2 = biological target: T1, binding of XIAP to Bcl-2 (Homo sapiens, UniProt P10415+P98170); experiment: BiFC assay in A375 melanoma cells (Bcl-2-VC and XIAP-VN); assay type: cell-based; details: 20 μM B3, 24 h
T1 construct: expressed in transfected cells; host or cells: A375 melanoma cells
T1 sequence (P98170 whole entry): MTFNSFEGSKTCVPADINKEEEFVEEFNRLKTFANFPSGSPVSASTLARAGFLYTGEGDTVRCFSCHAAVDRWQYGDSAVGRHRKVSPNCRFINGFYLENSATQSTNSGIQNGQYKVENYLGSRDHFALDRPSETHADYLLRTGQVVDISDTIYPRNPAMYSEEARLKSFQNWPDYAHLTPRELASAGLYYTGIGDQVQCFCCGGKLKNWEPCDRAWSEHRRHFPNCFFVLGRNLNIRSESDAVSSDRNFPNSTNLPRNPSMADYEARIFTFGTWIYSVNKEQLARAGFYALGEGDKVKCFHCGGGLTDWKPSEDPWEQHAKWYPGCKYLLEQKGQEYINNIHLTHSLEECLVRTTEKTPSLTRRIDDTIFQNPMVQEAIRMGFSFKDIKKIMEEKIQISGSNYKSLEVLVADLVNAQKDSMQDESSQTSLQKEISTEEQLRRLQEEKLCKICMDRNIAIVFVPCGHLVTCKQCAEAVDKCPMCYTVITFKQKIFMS
T1 sequence (P10415 whole entry): as the sequence (P10415 whole entry) above
From the text: The split-Venus BiFC system was used to evaluate close proximity indicating possible direct binding between pairs of proteins. The proteins were fused either to the N-terminal part of the Venus-YFP (yellow fluorescence protein) (VN) or the C-terminal part (VC). All Venus fragments were fused to the C-terminal sequences of these proteins. The Jun and Fos pair was used as a positive control (P.C.), and the Jun and FosdeltaZIP pair was used as a negative control (N.C.). A vector encoding dsRed was used as a transfection efficiency marker. Cells were seeded in 12 well plates overnight. Cells were then transfected with (Bcl-2-VC, ARTS-VN, XIAP-VN and XIAP-VC) for 24-36 hours. Cells were then treated with apoptotic inducing reagents for 24 hrs.

## Cn1ccnc1C(=O)c1ccc(NC(=O)C(=O)N[C@H](CO)Cc2ccccc2)cc1 [B3, (S)-N1-(1-hydroxy-3-phenylpropan-2-yl)-N2-(4-(1-methyl-1H-imidazole-2-carbonyl)phenyl)oxalamide]
MCF10AT1K (M2) cells; 40 μM, 24 h
  cellular death (blebbing, cell shrinkage): induced cellular death
MCF10AT1K (M2) cells; increasing concentrations, 7 days, dose dependent
  cellular death (blebbing, cell shrinkage): induced cellular death
BCL-2
  direct binding to Bcl-2: binds with high affinity
Binding of XIAP to Bcl-2
  binding of XIAP to Bcl-2: slightly increased; also recorded: increased
